In BindingDB's records for doi:10.7270/Q2QV3JZ2 (Vanderbilt Screening Center for GPCRs, Ion Channels and …, 2009):

What follows are molecules tested against T1, Solute carrier family 12 member 5 (Homo sapiens, UniProt Q9H2X9) (assay: modulation of KCC2 K-Cl transport – cell-based, assay 2, dose response (AID 1723)). Settings: not given.
T1 sequence (Q9H2X9 whole entry): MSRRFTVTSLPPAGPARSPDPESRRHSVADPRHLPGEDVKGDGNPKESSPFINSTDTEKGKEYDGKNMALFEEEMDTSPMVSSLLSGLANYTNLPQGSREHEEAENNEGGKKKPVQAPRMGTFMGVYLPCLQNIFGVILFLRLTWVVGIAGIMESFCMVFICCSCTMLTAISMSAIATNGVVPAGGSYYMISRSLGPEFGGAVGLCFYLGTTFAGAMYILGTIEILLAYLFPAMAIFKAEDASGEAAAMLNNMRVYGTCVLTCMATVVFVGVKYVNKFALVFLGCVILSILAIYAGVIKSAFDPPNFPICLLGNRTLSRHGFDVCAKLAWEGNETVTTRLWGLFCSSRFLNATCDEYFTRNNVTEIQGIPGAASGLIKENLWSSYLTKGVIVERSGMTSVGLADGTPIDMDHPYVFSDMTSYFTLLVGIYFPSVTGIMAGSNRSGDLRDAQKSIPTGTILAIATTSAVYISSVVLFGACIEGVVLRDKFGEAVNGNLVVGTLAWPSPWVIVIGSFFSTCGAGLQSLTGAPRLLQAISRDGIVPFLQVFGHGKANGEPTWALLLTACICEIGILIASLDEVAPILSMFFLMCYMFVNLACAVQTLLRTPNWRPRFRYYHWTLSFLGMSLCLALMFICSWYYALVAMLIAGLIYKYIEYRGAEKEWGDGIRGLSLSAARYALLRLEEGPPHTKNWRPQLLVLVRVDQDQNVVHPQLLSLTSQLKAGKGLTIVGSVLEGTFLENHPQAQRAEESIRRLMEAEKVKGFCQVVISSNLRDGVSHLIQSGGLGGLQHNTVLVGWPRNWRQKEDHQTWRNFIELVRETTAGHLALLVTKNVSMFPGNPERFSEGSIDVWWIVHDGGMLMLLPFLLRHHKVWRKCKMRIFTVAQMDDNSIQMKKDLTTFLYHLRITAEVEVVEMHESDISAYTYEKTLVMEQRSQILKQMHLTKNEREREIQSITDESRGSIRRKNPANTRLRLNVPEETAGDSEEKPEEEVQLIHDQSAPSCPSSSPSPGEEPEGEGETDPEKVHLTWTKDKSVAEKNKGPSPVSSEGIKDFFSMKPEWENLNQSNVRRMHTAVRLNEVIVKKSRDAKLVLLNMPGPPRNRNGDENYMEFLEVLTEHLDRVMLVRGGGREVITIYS

Row | SMILES | EC50
1 | Cc1[nH]n2c(=O)cc(C(C)C)nc2c1-c1ccccc1 | 16.1 µM
2 | O=[N+]([O-])c1ccc(-c2cn(-c3ccccc3F)c(=S)[nH]2)cc1 | 0.507 µM
3 | S=c1nc(-c2ccc3c(c2)CCO3)cc[nH]1 | 11.2 µM
4 | O=C1OC(c2ccc(O)cc2)(c2ccc(O)cc2)c2ccccc21 | 8.04 µM
5 | S=C(NCCc1ccccc1)NN=Cc1cccc(Cl)c1Cl [1-[(2,3-dichlorobenzylidene)amino]-3-phenethyl-thiourea] | 14.9 µM
6 | Fc1cccc(F)c1C=NNC(=S)Nc1cccnc1 [1-[(2,6-difluorobenzylidene)amino]-3-(3-pyridyl)thiourea] | 25.4 µM
7 | NC(=S)NN=C1C(=O)N(Cc2ccc(F)cc2)c2ccccc21 [1-[(Z)-[1-[(4-fluorophenyl)methyl]-2-oxidanylidene-indol-3-ylidene]amino]thiourea] | 5.71 µM
8 | O=C(NC(=S)Nc1nc(-c2cccc([N+](=O)[O-])c2)cs1)c1ccccc1Cl [2-chloranyl-N-[[4-(3-nitrophenyl)-1,3-thiazol-2-yl]carbamothioyl]benzamide] | 74 µM
9 | COC(=O)c1sccc1NC(=S)OC [3-(methoxycarbothioylamino)thiophene-2-carboxylic acid methyl ester] | 2.46 µM
10 | CCOc1cccc(C(=O)NC(=S)Nc2cccc(C)c2)c1 [3-ethoxy-N-(m-tolylthiocarbamoyl)benzamide] | 1.33 µM
11 | CCOc1[nH]n(-c2ccccc2)c(=O)c1C=Nc1ccc(F)cc1F [(4E)-4-[[[2,4-bis(fluoranyl)phenyl]amino]methylidene]-5-ethoxy-2-phenyl-pyrazol-3-one] | 976 µM
12 | Oc1ccccc1CN=Nc1nc2ccccc2o1 [(6E)-6-[(1,3-benzoxazol-2-ylhydrazo)methylidene]-1-cyclohexa-2,4-dienone] | 49 µM
13 | Cc1nn(-c2nc3ccccc3[nH]2)c(N)c1-c1ccccc1 [MLS000063763] | 1.42 µM
14 | Cc1cccc(N2CCN(C(=O)CCCn3c(=S)[nH]c4cc5c(cc4c3=O)OCO5)CC2)c1C [MLS000095366] | 9.51 µM
15 | CC(C)c1ccc(OCC(=O)NNC(=O)c2cnccn2)cc1 [MLS000332605] | 17 µM
16 | O=[N+]([O-])c1ccccc1C=C[CH+][N-]n1c(-c2ccc(Cl)cc2)n[nH]c1=S [MLS000555506] | 148 µM
17 | O=C(C=Cc1ccccc1)CC(=O)c1ccccc1O [MLS000627068] | 23.6 µM
18 | COc1cc(NC(=S)NC(=O)c2ccco2)ccc1NC(=O)C(C)C [MLS000672338] | 12 µM
19 | O=c1c2ccccc2[nH]c(=S)n1CCN1CCC(=C(c2ccc(F)cc2)c2ccc(F)cc2)CC1 [SMR000058550] | 8.8 µM

Same assay, conditions: inactive by the depositor's call

Row | SMILES | EC50
20 | Cc1ccc(-c2ccc(C=NNC(N)=S)o2)cc1 [1-[[5-(4-methylphenyl)furan-2-yl]methylideneamino]thiourea] | 47 µM
